Laboratory results published in US6399580B1, “Methods and compositions for stimulating tissue growth and epithelial moisturization” (The Regents of the University of California, priority 1994, dated 2002).

Key:
Assay type in all cases: in vivo
hairless mouse skin = test: Appearance and texture of treated skin
Method: (§1) To determine whether inhibitors of β-glucocerebrosidase would cause more profound effects than applications of exogenous GlcCER alone (examples 5&6), we next applied the specific, suicide inhibitor, bromoconduritol-B-epoxide (BrCBE) to intact hairless mouse skin (Simonsen Laboratories, Gilroy, Calif.) (Holleran, W. M. et al., J. Clin. Invest. (1993) 91:1656-1664). BrCBE (325 nmol in 20 μl propylene glycol:ethanol, 7:3 vols) was applied once daily for 0-14 days. (Holleran, W. M. et al. (1994) J. Clin. Inv. 93:1756-1764)

β-glucocerebrosidase = target: T1, β-glucocerebrosidase (Mus musculus, UniProt P17439); test: Epidermal β-glucocerebrosidase activity after topical BrCBE; details: topical BrCBE 325 nmol once daily
T1 construct: from tissue; host or cells: epidermis of hairless mice (Simonsen Laboratories, Gilroy, Calif.)
T1 sequence (P17439 20-515): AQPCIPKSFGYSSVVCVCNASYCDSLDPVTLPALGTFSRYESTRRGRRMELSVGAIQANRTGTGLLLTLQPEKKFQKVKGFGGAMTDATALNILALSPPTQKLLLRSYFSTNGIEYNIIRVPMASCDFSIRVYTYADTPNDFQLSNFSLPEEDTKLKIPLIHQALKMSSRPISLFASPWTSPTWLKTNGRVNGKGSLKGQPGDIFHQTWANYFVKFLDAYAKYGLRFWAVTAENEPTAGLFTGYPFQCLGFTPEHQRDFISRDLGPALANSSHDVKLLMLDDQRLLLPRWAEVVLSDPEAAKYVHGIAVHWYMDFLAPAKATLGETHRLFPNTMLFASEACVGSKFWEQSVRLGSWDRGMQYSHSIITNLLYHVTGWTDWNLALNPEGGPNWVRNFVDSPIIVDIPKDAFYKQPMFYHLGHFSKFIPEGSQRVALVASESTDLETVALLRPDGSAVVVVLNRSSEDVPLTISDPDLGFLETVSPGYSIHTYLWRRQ
Method: as §1

hairless mouse epidermis = test: Epidermal / stratum corneum lipid content (HPTLC/TLC)
Method: Hairless mice were treated with BrCBE for 5 days as described in Example 10. The following high performance thin layer chromatograph (HPTLC) system was developed for optimal separation of ceramides and glucosylceramides for quantitation by spectrodensitometry. Extracts were applied to precleaned 10 ×20 cm HPTLC plates, 0.5 cm from lower edge of the plate and fractionated sequentially in a horizontal developmental chamber (Camag, Muttenz, Switzerland) in the following solvent systems: 1) chloroform:methanol:acetic acid (190:9:1), v/v/v) to the top, twice; 2) chloroform:methanol:acetone (76:20:4, by volume) to 30 mm. Between each development, the plate was dried for 5 minutes on a hot plate (40° C.), cooled for 2 minutes, and equilibrated in the tank with the solvents for 3 minutes. After final development, the plates were dried, cooled, dipped in charring solution (1.5% cupric sulfate in acetic acid:sulfuric acid:orthophosphoric acid:water (50:10:10:30, by volume) for 15 seconds, dried (40° .C) for 5 minutes, and then charred at 180° C. for 15 minutes. Plates were scanned with a variable wavelength scanning densitometer (Camag, Muttenz, Switzerland). Lipid amounts for each fraction were estimated using ceramides 3 and 4, and galactosylceramides 1 and 2 as reference standards (Sigma Chemical Co., St. Louis, Mo.).
The epidermal glucosylceramide content was determined in mice treated with the topical β-glucocerebrosidase inhibitors. Mice were treated with CBE for one day as described in FIG. 22. The mice were sacrificed and whole skin was excised. Subcutaneous fascia and fat were scraped off, and the samples were placed dermis side down onto […] EDTA in PBS-CMF (pH 7.4) and incubated at 37° C. for 40 min. Skin was blotted dry with a tissue and the epidermis was removed by scraping with a surgical blade. The epidermis was minced, placed into microcentrifuge vials, immediately snap frozen and stored in liquid N2 until extracted.
For extraction the tissue was soaked in 7.6 ml Bligh/Dyer extraction media (2 ml chloroform, 4 ml Methanol, 1.6 ml H2O) overnight at room temperature. The following day the tissue was shaken for 20 min. and centrifuged for 10 min. the solvent was removed and the pellet was combined with 7.6 ml Bligh/Dyer media and again shaken and centrifuged. The solvents were combined with solvent from the soaks and filtered through pre-solvent-washed Whatman 43 filter paper, 2 ml chloroform and 2 ml H2O was added to each 7.6 ml quantity of the filtrate and shaken for 10 min. The samples were then centrifuged and the upper phase discarded. The lower phase was washed with 4 ml chloroform, 4 ml MetOH, and 3.6 ml H2O (shaken for 10 min and centrifuged). The upper phase was discarded. The lower phase was dried under N2 in a 47° C. water bath. The lipid was resuspended in chloroform and weighed on the Cahn balance.
TLC was performed using 15-20 μg samples and quantitated against standard glycosylceramide and 40 μg sample for sphingolipids (Holleran, W. M. et al. (1993) J. Clin. Invest. 91:1656-1664).
Both glucosylceramide and ceramide content was then determined in lower (stratum basale) and upper (stratum spinosum, stratum granulosum and stratum corneum) epidermis (FIG. 23). Following 24 hours of CBE treatment samples were excised following treatment (as in Example 16).

[1] = system: intact hairless mouse skin; test: Transepidermal water loss after topical application; details: BrCBE 325 nmol topical once daily, after four daily applications
Method: as §1
Transepidermal Water Loss was determined by using a MEECO electrolytic water analyzer (MEECO, Warrington, Pa.). Water loss measurements are recorded over a small area of skin (0.5cm^2) in parts per million/0.5cm^2 per hour over background.

[2] = BrCBE 325 nmol/5cm^2/day, five days

For OC1C(O)C(Br)C2OC2C1O (stereo not shown) [BrCBE, bromoconduritol-B-epoxide], the inflammation or edema (hairless mouse skin; BrCBE-treated skin) was “no indication of inflammation or edema”, the skin moisture content (hairless mouse skin; BrCBE-treated skin) was “increased moisture content” and the “skin smoothness and softening of skin surface” value (hairless mouse skin; BrCBE-treated skin) was “marked increase”. The skin wrinkling (hairless mouse skin; BrCBE-treated vs vehicle-treated skin, visual inspection) was “reduced”, the “epidermal β-glucocerebrosidase activity, of normal” value (β-glucocerebrosidase) was 5 % of normal and the “reduction of epidermal β-glucocerebrosidase activity” value (β-glucocerebrosidase) was “about 95%”. The “ceramide content, whole epidermis lipid extracts” value (hairless mouse epidermis; [2]) was “decrease”, the “epidermal glucosylceramides, whole epidermis lipid extracts” value (hairless mouse epidermis; [2]) was “increased” and the “increase in stratum corneum glucosylceramides” value (hairless mouse epidermis; BrCBE 5 days, vs vehicle-treated and/or untreated murine stratum corneum, FIG. 14) was “eight to ten”. For the same compound, the “TEWL plateau level (defect in permeability barrier function)” value [1] was 10-15 times normal.
